Measurements from US20260256704A1, “STEALTH-STABILIZED LIPO-POLYAMINO ACIDS” (POLYPEPTIDE THERAPEUTIC SOLUTIONS, S.L., priority 2022, published 2026).

Tests used:
HeLa cells = experiment: Luciferase assay for transfection efficiency in HeLa cells; format: cell-based; details: LNPs containing the conjugate
Protocol: HeLa cells were cultured in DMEM high glucose with Glutamax (Gibco—Thermo Fisher #61965-059) supplemented with 10% of Fetal Bovine Serum (Hyclone #SV30160.03HI, provided by GE Healthcare Europe GmbH) and 1% penicillin/streptomycin. Transfections were carried out on 96-well plates containing 10000 cells/well in a final volume of 100 μl, and cells were incubated 24 hours at 37° C. and 5% CO2. After 24 h from cell seeding, the medium was removed and refreshed with 90 μl of complete medium. 10 μl of each LNPs formulation were added to the cells. In the case of positive control (Lipofectamine™ 2000 Transfection Reagent, Invitrogen™), manufacturer guidelines were followed. After 24 hours cells were recovered and processed.
After 24 h post-incubation with the LNPs formulation, 100 μl of BrightGlo reagent (Promega #E2620) was added in each well following manufacturer instructions. After 5 minutes of incubation at room temperature luciferase activity was measured using VictorNivo (PerkinElmer). Data was represented as luminescence relative to the percentage of transfection relative to the positive control of transfection.
The transfection data is represented as % of the positive control Lipofectamine™ 2000 being the positive control 100% after 24 h of treatment and cell viability is compared to non-treated (NT) cells, being the ATP content readout of NT (non-treated) cells equal to 100%.

HEK293 cells = experiment: Luciferase assay for transfection efficiency in HEK293 cells; format: cell-based; details: at different concentrations (50-300 ng mRNA/well)
Protocol: HEK293 cells were cultured in DMEM high glucose with Glutamax (Gibco—Thermo Fisher #61965-059) supplemented with 10% of Fetal Bovine Serum (Hyclone #SV30160.03HI, provided by GE Healthcare Europe GmbH) and 1% penicillin/streptomycin. Transfections were carried out on 96-well plates containing 30000 cells/well in a final volume of 100 μl, and cells were incubated 24 hours at 37° C. and 5% CO2. After 24 h from cell seeding, the medium was removed and refreshed with 90 μl of complete medium. 10 μl of each LNPs formulation were added to the cells. After 24 hours cells were recovered and processed.
After 24 h post-incubation with the LNPs formulation, 100 μl of BrightGlo reagent (Promega #E2620) was added in each well following manufacturer instructions. After 5 minutes of incubation at room temperature luciferase activity was measured using VictorNivo (PerkinElmer). Data was represented as luminescence relative to the percentage of transfection relative to the positive control of transfection. […]

In the case of C14-PGA(Diol) [Lipo-PAA1], the “transfection efficiency relative to the gold standard Lipofectamine” value (HeLa cells) is reported as 2.5 fold.

C14-PSar [C14PSar] was tested, and the “transfection efficiency relative to the commercial standard DMG-PEG” value (HEK293 cells) was “comparable transfection to DMG-PEG”.
